# Results: publication PMC5823473, “Host-parasite co-metabolic activation of antitrypanosomal aminomethyl-benzoxaboroles” (PLoS Pathogens, 2018)
# Key:
# TbALDH3 = biological target: T1, TbALDH3 (Trypanosoma brucei, UniProt Q583M9); experiment: HPLC-MS of metabolites, coupled with MAOa or FBS; format: biochemical; conditions: aldehyde made in situ from AN3057; oxidised to the carboxylate (AN2861)
# T1 construct: gene Tb06.5F5.780; A6-K490 seen in crystal
# T1 sequence (Q583M9 1-543): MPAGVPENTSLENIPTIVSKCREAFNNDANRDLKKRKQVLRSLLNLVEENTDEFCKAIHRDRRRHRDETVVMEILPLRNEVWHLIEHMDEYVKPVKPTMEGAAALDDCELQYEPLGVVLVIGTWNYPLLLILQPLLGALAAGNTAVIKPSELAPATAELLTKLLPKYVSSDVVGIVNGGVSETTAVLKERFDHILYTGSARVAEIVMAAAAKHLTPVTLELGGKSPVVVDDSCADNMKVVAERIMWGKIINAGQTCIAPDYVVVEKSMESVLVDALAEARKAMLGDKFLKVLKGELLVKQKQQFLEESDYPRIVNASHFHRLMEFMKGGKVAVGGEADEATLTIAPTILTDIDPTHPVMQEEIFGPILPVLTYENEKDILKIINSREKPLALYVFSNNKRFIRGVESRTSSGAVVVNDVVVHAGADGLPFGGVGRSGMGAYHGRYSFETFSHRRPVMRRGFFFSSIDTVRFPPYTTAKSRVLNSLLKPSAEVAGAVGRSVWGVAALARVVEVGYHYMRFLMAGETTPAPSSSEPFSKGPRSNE
# MAOa = biological target: T2, MAOa (Homo sapiens, UniProt P21397); experiment: HPLC-MS of metabolites; format: biochemical; conditions: oxidised to the aldehyde
# T2 construct: commercial recombinant enzyme (Sigma)
# T2 sequence (P21397 1-527): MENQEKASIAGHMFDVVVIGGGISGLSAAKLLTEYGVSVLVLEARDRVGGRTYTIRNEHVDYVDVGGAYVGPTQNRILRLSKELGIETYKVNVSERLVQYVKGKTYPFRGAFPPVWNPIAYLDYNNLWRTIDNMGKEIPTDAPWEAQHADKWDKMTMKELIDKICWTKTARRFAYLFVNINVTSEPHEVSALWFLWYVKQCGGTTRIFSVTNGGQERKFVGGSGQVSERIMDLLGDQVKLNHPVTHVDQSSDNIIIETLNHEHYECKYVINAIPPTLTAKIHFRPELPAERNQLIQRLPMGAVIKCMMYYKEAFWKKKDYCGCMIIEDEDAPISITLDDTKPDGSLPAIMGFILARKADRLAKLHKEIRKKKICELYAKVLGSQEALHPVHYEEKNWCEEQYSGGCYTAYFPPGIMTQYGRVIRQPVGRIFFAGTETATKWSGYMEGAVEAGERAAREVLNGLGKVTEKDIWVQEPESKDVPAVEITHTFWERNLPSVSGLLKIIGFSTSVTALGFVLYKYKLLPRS
smiles,measurement,setting,value
O=Cc1ccc(Oc2ccc3c(c2)COB3O)cc1 [AN3057-aldehyde],"HPLC-MS of metabolites, coupled with MAOa or FBS",TbALDH3,"converted by MAOa into an aldehyde, and then is further metabolized into a carboxylic acid"
"NCc1ccc(Oc2ccc3c(c2)COB3O)cc1 [AN3057, (4-(1-hydroxy-1,3-dihydrobenzo[c][1,2]oxaborol-5-yloxy)phenyl)methanaminium chloride]",HPLC-MS of metabolites,MAOa,the methylamine group in the structure is first converted by MAOa into an aldehyde
